Reference: US10473647B1, “Peptides for use in treatment and diagnosis of type 1 diabetes” (ImmusanT, Inc., priority 2014, dated 2019)

Assays:
Format in all cases: cell-based, human
[1] = system: whole blood from subjects with T1D and Celiac disease; experiment: Whole blood cytokine release assay, IFN-γ (MAGPIX), Example 1; details: individual 17mer 20 μg/mL, blood 6 days after commencing oral gluten challenge; for subjects with elevated whole blood IFN-γ release: four subjects
[2] = system: whole blood from subjects with T1D and Celiac disease; experiment: Whole blood cytokine release assay, IP-10 (MAGPIX), Example 1; details: individual 17mer 20 μg/mL, blood 6 days after commencing oral gluten challenge; for subjects with elevated whole blood IP-10 release (2-fold greater than medium alone): four subjects
[3] = system: whole blood from subjects with T1D and Celiac disease; experiment: Whole blood cytokine release assay, IL-2 (MAGPIX), Example 1; details: individual 17mer 20 μg/mL, blood 6 days after commencing oral gluten challenge; for subjects with elevated whole blood IL-2 release: four subjects

Sequence: FDRSTKVIDFHYPNELL [SEQ ID NO: 61]
- subjects with elevated whole blood IFN-γ release [1]: One subjected responded
- subjects with elevated whole blood IP-10 release (2-fold greater than medium alone) [2]: One subjected responded
- subjects with elevated whole blood IL-2 release [3]: One subjected responded

Sequence: FYTPKTRREAEDLQGSL [SEQ ID NO: 46]
- IFN-g fold-change ([1]; Subject 1): 0.92
- IFN-g fold-change (preproinsulin peptides) ([1]; Subject 1): 0.92 fold
- IFN-g fold-change ([1]; Subject 2): 1.47
- IFN-g fold-change (preproinsulin peptides) ([1]; Subject 2): 1.47 fold
- IFN-g fold-change ([1]; Subject 6): 1.15
- IFN-g fold-change (preproinsulin peptides) ([1]; Subject 6): 1.15 fold
- IFN-g fold-change ([1]; Subject 7): 2.02
- IFN-g fold-change (preproinsulin peptides) ([1]; Subject 7): 2.02 fold
- subjects with elevated whole blood IFN-γ release [1]: in one of these subjects
- IP-10 fold-change ([2]; Subject 1): 1.06
- IP-10 fold-change (preproinsulin peptides) ([2]; Subject 1): 1.06 fold
- IP-10 fold-change ([2]; Subject 2): 4.64
- IP-10 fold-change (preproinsulin peptides) ([2]; Subject 2): 4.64 fold
- IP-10 fold-change ([2]; Subject 6): 2.24
- IP-10 fold-change (preproinsulin peptides) ([2]; Subject 6): 2.24 fold
- IP-10 fold-change ([2]; Subject 7): 2.70
- IP-10 fold-change (preproinsulin peptides) ([2]; Subject 7): 2.70 fold
- subjects with elevated whole blood IP-10 release (2-fold greater than medium alone) [2]: three subjects
- IL-2 fold-change ([3]; Subject 1): 1.00
- IL-2 fold-change (preproinsulin peptides) ([3]; Subject 1): 1.00 fold
- IL-2 fold-change ([3]; Subject 2): 1.00
- IL-2 fold-change (preproinsulin peptides) ([3]; Subject 2): 1.00 fold
- IL-2 fold-change ([3]; Subject 6): 1.16
- IL-2 fold-change (preproinsulin peptides) ([3]; Subject 6): 1.16 fold
- IL-2 fold-change ([3]; Subject 7): 8.19
- IL-2 fold-change (preproinsulin peptides) ([3]; Subject 7): 8.19 fold
- subjects with elevated whole blood IL-2 release [3]: in one of these subjects

Sequence: GRTGTYILIDMVLNRMA [SEQ ID NO: 12]
- subjects with elevated whole blood IFN-γ release [1]: in two subjects
- subjects with elevated whole blood IP-10 release (2-fold greater than medium alone) [2]: consistently stimulated
- subjects with elevated whole blood IL-2 release [3]: consistently stimulated

Sequence: MALWMRLLPLLALLALW [SEQ ID NO: 54]
- IFN-g fold-change ([1]; Subject 1): 1.02
- IFN-g fold-change (preproinsulin peptides) ([1]; Subject 1): 1.02 fold
- IFN-g fold-change ([1]; Subject 2): 1.01
- IFN-g fold-change (preproinsulin peptides) ([1]; Subject 2): 1.01 fold
- IFN-g fold-change ([1]; Subject 6): 0.88
- IFN-g fold-change (preproinsulin peptides) ([1]; Subject 6): 0.88 fold
- IFN-g fold-change ([1]; Subject 7): 0.67
- IFN-g fold-change (preproinsulin peptides) ([1]; Subject 7): 0.67 fold
- IP-10 fold-change ([2]; Subject 1): 1.04
- IP-10 fold-change (preproinsulin peptides) ([2]; Subject 1): 1.04 fold
- IP-10 fold-change ([2]; Subject 2): 1.05
- IP-10 fold-change (preproinsulin peptides) ([2]; Subject 2): 1.05 fold
- IP-10 fold-change ([2]; Subject 6): 2.20
- IP-10 fold-change (preproinsulin peptides) ([2]; Subject 6): 2.20 fold
- IP-10 fold-change ([2]; Subject 7): 0.73
- IP-10 fold-change (preproinsulin peptides) ([2]; Subject 7): 0.73 fold
- subjects with elevated whole blood IP-10 release (2-fold greater than medium alone) [2]: stimulated IP-10 release in the strongest responder
- IL-2 fold-change ([3]; Subject 1): 1.00
- IL-2 fold-change (preproinsulin peptides) ([3]; Subject 1): 1.00 fold
- IL-2 fold-change ([3]; Subject 2): 1.00
- IL-2 fold-change (preproinsulin peptides) ([3]; Subject 2): 1.00 fold
- IL-2 fold-change ([3]; Subject 6): 1.00
- IL-2 fold-change (preproinsulin peptides) ([3]; Subject 6): 1.00 fold
- IL-2 fold-change ([3]; Subject 7): 0.21
- IL-2 fold-change (preproinsulin peptides) ([3]; Subject 7): 0.21 fold
